Data published in patent publication US7745651B2, “Cationic lipids and methods of use” (Protiva Biotherapeutics, Inc., priority 2004, dated 2010).
“And” between values parts separate entries of the source, which are not always exact repeats. Identical values can stand only once. “Also recorded” adds a separate entry of the source.

Experiments:
[1] = SNALP particle diameter and polydispersity, Malvern Zetasizer; type: physicochemical; settings: SNALP DSPC:Chol:PEG-C-DMA:Cationic Lipid 20:48:2:30 molar percent; mean of 3 experiments, error is standard deviation
Description: SNALP Preparation: SNALP with a lipid composition of DSPC:Chol:PEG-C-DMA:Cationic Lipid (20:48:2:30 molar percent) were prepared using the spontaneous vesicle formation by ethanol dilution method [Jeffs et al., Pharm. Res. In Press (2005)]. The sample's were diafiltered against 100 mL of PBS (20 wash volumes) using a cross flow ultrafiltration cartridge (Amersham Biosciences, Piscataway, N.J.) and sterile filtered through Acrodisc 0.2 μm Posidyne filters (Pall Corp., Ann Arbor, Mich.). The siRNA concentration of final samples was determined using the RiboGreen assay and a siRNA standard curve. Particle size and polydispersity was determined using a Malvern Instruments Zetasizer 3000HSA (Malvern, UK). Nucleic acid encapsulation was determined using a RiboGreen assay, comparing fluorescence in the presence and absence of Triton X-100. RiboGreen fluorescence was measured using a Varian Eclipse Spectrofluorometer (Varian Inc) with λex=500 nm, λem=525 nm.
This example sets forth the physical properties of the SNALP formulations described herein. SNALP containing the various cationic lipids were prepared as described and encapsulated RNA and particle size assessed (Table 1 below). […] Polydispersity of all formulations was low, indicating a narrow distribution of particle size. RNA encapsulation in the final particles was 84-85% of the total.
Percentage Encapsulation was determined using the RiboGreen fluorescence assay to measure the amount of encapsulated nucleic acid relative to the total nucleic acid present. Particle diameter and polydispersity was measured using a Malvern Zetasizer. Values are the mean of 3 separate experiments, the error is standard deviation.

[2] = test system: luciferase expression in Neuro2A-G cells (Neuro2A cells stably transfected to express luciferase); assay: In vitro transfection: luciferase gene silencing by SNALP encapsulating anti-luciferase siRNA; type: cell-based; settings: SNALP with anti-luciferase siRNA; for knockdown in gene expression (luciferase) versus control SNALP containing mismatch siRNA: Neuro2A cells stably expressing luciferase, 48 hours; for luciferase expression relative to untreated control: after 48 hours
Description: In vitro Transfection: Cells were cultured in MEM (Invitrogen) containing 10% fetal bovine serum (FBS) (CanSera) and 0.25 mg/mL G418 (Invitrogen). Neuro2A-G cells (Neuro2A cells stably transfected to express luciferase [R. E. Kingston. in Current Protocols in Molecular Biology, Vol. 2, pp. 9.1.4-9.1.9, John Wiley & Sons, Inc. (1997)]) were plated at a concentration of 4×10^4 cells per well in 24-well plates and grown overnight. Cells were treated with SNALP at doses of 0.0625-1.0 μg/mL nucleic acid (AntiLuc Active or Mismatch Control) and incubated for 48 hours at 37° C. and 5% CO2. Cells were then washed with PBS and lysed with 200 μL 250 mM sodium phosphate containing 0.1% Triton X-100. The luciferase activity for each well was determined using Luciferase Reagent (Promega) and a standard luciferase protein (Roche). The luminescence for each was measured using a Berthold MicroLumatPlus LB96V plate luminometer. The resulting luciferase activity was then normalized for the amount of protein using the Micro BCA assay kit (Pierce). Luciferase knockdown relative to a control was then determined for each system.
This example describes experiments comparing expression of nucleic acids following in vitro transfection of Neuro2A cells with SNALP comprising: (1) DODAC, DODMA, or DLinDMA; (2) PEG-C-DMA; and (3) an siRNA duplex directed against luciferase encapsulated in the SNALP (i.e., siRNA comprising the following sequence: […] (SEQ ID NO:1) and targeting the DNA sequence complementary to: […] (SEQ ID NO:3)). Neuro2A cells were stably transfected with a plasmid encoding luciferase under the control of the CMV promoter (pLO55). The stably transfected cells were then transfected with SNALP comprising: 15, 20, 25, 30, 35, or 40% of DODAC, DODMA, or DLinDMA; 2% PEG-C-DMA, and an siRNA duplex directed against luciferase encapsulated in the SNALP. Luciferase protein expression was measured 48 hours after transfection with SNALP.
The ability of SNALP containing each of the four cationic lipids (i.e., DSDMA, DODMA, DLinDMA, and DLenDMA) to effect gene silencing in stably transfected Neuro2A cells was evaluated. Neuro2A cells stably transfected to express the luciferase were treated with SNALP containing anti-luciferase siRNA for 48 hours. Gene-silencing efficiency was evaluated by comparing the remaining luciferase activity in these cells to that remaining in cells treated with control SNALP containing mismatch siRNA.

[3] = TNS assay, apparent pKa of cationic lipid incorporated in SNALP; settings: TNS fluorescence, pH varied from 4.5 to 9.5
Description: TNS Assay: 20 μM of SNALP lipid and 6 μM of TNS were mixed in a fluorescence cuvette in 2 mL of 20 mM sodium phosphate, 25 mM citrate, 20 mM ammonium acetate and 150 mM NaCl, at a pH that was varied from 4.5 to 9.5. Fluorescence was determined at each pH using a Varian Eclipse Spectrofluorometer (Varian Inc) with settings of λex=322 nm, λem=431 nm. Fluorescence for each system at the various pH was then normalized to the value at pH 4.5. The pKa values are the point at which 50% of the molecules present are charged. By assuming that minimum fluorescence represents zero charge, and maximum fluorescence represents 100% charge, pKa can be estimated by measuring the pH at the point exactly half way between the values of minimum and maximum charge.
TNS is electrostatically attracted to positively charged membranes. Subsequent adsorption to the lipid membrane results in the immediate environment of the TNS becoming more lipophilic, removing the water molecules that otherwise quench TNS fluorescence. Since TNS is more readily absorbed by positively charged membranes, TNS fluorescence is an indicator of positive membrane surface charge. The surface pKa values of each SNALP formulation were determined by varying the local pH in the presence of TNS.

| SMILES | Diameter (nm) [1] | Polydispersity [1] | knockdown in gene expression (luciferase) versus control SNALP containing mismatch siRNA [2] | luciferase expression relative to untreated control [2] | apparent (surface) pKa of cationic lipid in SNALP [3] |
| --- | --- | --- | --- | --- | --- |
| CC/C=C\C/C=C\C/C=C\CCCCCCCCOCC(CN(C)C)OCCCCCCCC/C=C\C/C=C\C/C=C\CC (stereo not shown) [DLenDMA, 1,2-Dilinolenyloxy-N,N-dimethylaminopropane] | 132 ± 7 nm | 0.13 ± 0.03 | slightly less efficient than those containing DLinDMA | 32% | 6.7 |
| CCCCCCCCCCCCCCCCCC[N+](C)(C)CCCCCCCCCCCCCCCCCC [DSDMA, Distearyldimethylammonium] | 180 nm and 182 ± 11 nm | 0.15 ± 0.03 | no activity; also recorded: almost no capacity for effecting RNA interference | no effect on luciferase gene expression | ~7.6 |
